{
  "source": "PubChem BioAssay AID2740",
  "about": "(NMMLSC, 2010)",
  "note": "Calls of active or inactive are those of the source.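 The calls were made as follows: active = compounds whose fitted half-maximal concentration for changing the GFP signal is at or below a set limit; inactive = the rest.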",
  "data": [
    {"assay": "TOR pathway RPL19A-GFP modulators, concentration series – cell-based, S. cerevisiae, flow cytometry, MLPCN hits, dose response (AID 2740);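 also: background is signal of the same compound in parental non-GFP s288c yeast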", "conditions": "S. cerevisiae RPL19A-GFP strain, flow cytometry fluorescence, 3 h; at 33 µM (top of the series)", "values": [
      {"compound": "Cc1c(NC2=C(Cl)C(=O)N(c3ccccc3Cl)C2=O)c(=O)n(-c2ccccc2)n1C", "GFP fluorescence, lower = active (kMESF (background-subtracted))": "38.7 (inactive)"},
      {"compound": "Cc1ccc(S(=O)(=O)Cc2cc(F)c([N+](=O)[O-])cc2[N+](=O)[O-])cc1", "GFP fluorescence, lower = active (kMESF (background-subtracted))": "7.75 (inactive)"},
      {"compound": "COc1cc(/C=C2\\C(=O)ON=C2c2ccc(Cl)cc2)ccc1O", "GFP fluorescence, lower = active (kMESF (background-subtracted))": "40.8 (inactive)"},
      {"compound": "O=C1/C(=C\\c2ccc(O)c(O)c2)SC(=S)N1Cc1ccccc1", "GFP fluorescence, lower = active (kMESF (background-subtracted))": "1.52 (inactive)"},
      {"compound": "COc1ccc(OC)c(S(=O)(=O)ON2C(=O)c3ccccc3C2=O)c1", "GFP fluorescence, lower = active (kMESF (background-subtracted))": "25.6 (inactive)"},
      {"compound": "N#C/C(=C\\c1ccccn1)c1nc2ccccc2s1", "GFP fluorescence, lower = active (kMESF (background-subtracted))": "54.2 (inactive)"},
      {"compound": "Clc1cnc(N/N=C/c2cccs2)c(Cl)c1", "GFP fluorescence, lower = active (kMESF (background-subtracted))": "43.5 (inactive)"},
      {"compound": "Cc1ccc(C(=O)Oc2oc(-c3ccccc3)nc2C=Nc2ccc(N(C)C)cc2)cc1", "GFP fluorescence, lower = active (kMESF (background-subtracted))": "38.8 (inactive)"},
      {"compound": "COc1ccc(CCNC2=C(Cl)C(=O)N(CCc3ccccc3)C2=O)cc1OC", "GFP fluorescence, lower = active (kMESF (background-subtracted))": "40 (inactive)"},
      {"compound": "Cc1ccc(C(=O)O/N=C(\\N)Cc2cccs2)c(Cl)c1", "GFP fluorescence, lower = active (kMESF (background-subtracted))": "38.5 (inactive)"},
      {"compound": "O=[N+]([O-])c1cnc(Sc2ccncn2)s1", "GFP fluorescence, lower = active (kMESF (background-subtracted))": "31.1 (inactive)"},
      {"compound": "Cc1cc(NC(c2ccc(Cl)cc2)c2ccc3cccnc3c2O)no1", "note": "(centres undefined)", "GFP fluorescence, lower = active (kMESF (background-subtracted))": "39.3 (inactive)"},
      {"compound": "O=C1CCN(S(=O)(=O)c2ccccc2)CCN1CCOCc1ccc(F)cc1", "GFP fluorescence, lower = active (kMESF (background-subtracted))": "36.9 (inactive)"},
      {"compound": "Oc1ccc2ccccc2c1/C=N/Nc1nnc(-c2ncc[nH]2)c2ccccc12", "GFP fluorescence, lower = active (kMESF (background-subtracted))": "4.23 (inactive)"},
      {"compound": "Oc1cc(-c2ccc(N3CCCCC3)nc2)cc2cccnc12", "GFP fluorescence, lower = active (kMESF (background-subtracted))": "46.1 (inactive)"},
      {"compound": "O=C(/C=C/c1ccc(Br)cc1)NC(=S)NNC(=O)c1ccco1", "GFP fluorescence, lower = active (kMESF (background-subtracted))": "50.2 (inactive)"},
      {"compound": "CC(C)Oc1ccc(C(=O)/C=C2/C(=O)Nc3ccccc32)cc1", "GFP fluorescence, lower = active (kMESF (background-subtracted))": "29 (inactive)"},
      {"compound": "Cc1ccc(-c2nc(N)c3c(-c4ccc(C)cc4)nn(C(C)(C)C)c3n2)cc1", "GFP fluorescence, lower = active (kMESF (background-subtracted))": "43.1 (inactive)"},
      {"compound": "N/C(Cc1ccc(Cl)cc1Cl)=N\\OC(=O)c1ccccc1", "GFP fluorescence, lower = active (kMESF (background-subtracted))": "28.6 (inactive)"},
      {"compound": "O=C(Nc1nnc(-c2ccc3c(c2)CCCC3)o1)c1ccc(Cl)cc1Cl", "GFP fluorescence, lower = active (kMESF (background-subtracted))": "37.2 (inactive)"},
      {"compound": "CC(=O)Oc1ccc(N2C(=O)C3C4C=CC(O4)C3C2=O)cc1", "note": "(centres undefined)", "GFP fluorescence, lower = active (kMESF (background-subtracted))": "48.8 (inactive)"},
      {"compound": "COc1ccc(C2=CC3=C(Br)C(=O)C(C)(O)C(=O)C3=CO2)cc1", "note": "(centres undefined)", "GFP fluorescence, lower = active (kMESF (background-subtracted))": "1.92 (inactive)"},
      {"compound": "O=C(NC(=S)Nc1ccc2oc(=O)ccc2c1)c1cccc(Cl)c1", "GFP fluorescence, lower = active (kMESF (background-subtracted))": "37.2 (inactive)"},
      {"compound": "CC(=O)N(\\C=C/C=C/C=C1\\Sc2ccccc2C1=O)c1ccccc1", "GFP fluorescence, lower = active (kMESF (background-subtracted))": "56.1 (inactive)"},
      {"compound": "COc1cc(/C=C2\\C(=O)ON=C2c2ccccc2)cc(Br)c1O", "GFP fluorescence, lower = active (kMESF (background-subtracted))": "37.3 (inactive)"},
      {"compound": "O=C(Oc1oc(-c2ccco2)nc1C=Nc1ccccc1)c1ccco1", "GFP fluorescence, lower = active (kMESF (background-subtracted))": "38.5 (inactive)"},
      {"compound": "O=C(c1ccccn1)c1conc1C(=O)c1ccc(Br)cc1", "GFP fluorescence, lower = active (kMESF (background-subtracted))": "38.5 (inactive)"},
      {"compound": "CCOC(=O)CCS(=O)(=O)c1nc(-c2ccccc2)cc(C(F)(F)F)n1", "GFP fluorescence, lower = active (kMESF (background-subtracted))": "33.2 (inactive)"},
      {"compound": "Cc1cc(=O)n2c3c(sc2n1)C(=O)N(Cc1ccccc1)C3=O", "GFP fluorescence, lower = active (kMESF (background-subtracted))": "42.5 (inactive)"}
    ]}
  ]
}
